Assay results reported in ChEMBL document CHEMBL3885881, “DrugMatrix”.

Organism: Rattus norvegicus
Assay: DrugMatrix - Regimen: Daily Repeat
Type: toxicity, organism-based, Sprague-Dawley
Design: regimen Daily Repeat, gender Male, age 6-8 weeks
Details: in vivo, po, route oral GAVAGE, vehicle 100 % WATER; for ABSOLUTE BASOPHIL / ABSOLUTE EOSINOPHIL / ABSOLUTE LYMPHOCYTE / ABSOLUTE MONOCYTE / ABSOLUTE SEGMENTED NEUTROPHIL / BASOPHIL / EOSINOPHIL / ERYTHROCYTE COUNT / HEMATOCRIT / HEMOGLOBIN / LEUKOCYTE COUNT / LYMPHOCYTE / MEAN CORPUSCULAR HEMOGLOBIN / MEAN CORPUSCULAR HEMOGLOBIN CONCENTRATION / MEAN CORPUSCULAR VOLUME / MONOCYTE / NEUTROPHIL / NUCLEATED RED BLOOD CELLS / PLATELET COUNT: tissue Blood; for ALANINE AMINOTRANSFERASE / ALBUMIN / ALKALINE PHOSPHATASE / ASPARTATE AMINOTRANSFERASE / BLOOD UREA NITROGEN / CARBON DIOXIDE / CHLORIDE / CHOLESTEROL / CREATINE PHOSPHOKINASE / CREATININE / GLUCOSE / LACTATE DEHYDROGENASE / LIPASE / PHOSPHORUS / POTASSIUM / SODIUM / TOTAL BILIRUBIN / TOTAL PROTEIN / URIC ACID: tissue Plasma
[1] = 100 mg/kg, 120 h, dose level Low, time 5 day
[2] = 750 mg/kg, 72 h, dose level High, time 3 day
[3] = 750 mg/kg, 120 h, dose level High, time 5 day

NC(=O)c1cccnc1 [NIACINAMIDE]
ABSOLUTE BASOPHIL [1]: 0 CELLS/uL | ABSOLUTE EOSINOPHIL [1]: 0 CELLS/uL | ABSOLUTE LYMPHOCYTE [1]: 16541 CELLS/uL | ABSOLUTE MONOCYTE [1]: 560 CELLS/uL | ABSOLUTE SEGMENTED NEUTROPHIL [1]: 1799 CELLS/uL | BASOPHIL [1]: 0% | EOSINOPHIL [1]: 0% | ERYTHROCYTE COUNT [1]: 5.76 x10E6/uL | HEMATOCRIT [1]: 36.2% | HEMOGLOBIN [1]: 13.57 G/DL | LEUKOCYTE COUNT [1]: 18.9 x10E3/uL | LYMPHOCYTE [1]: 87.67% | MEAN CORPUSCULAR HEMOGLOBIN [1]: 23.57 pg | MEAN CORPUSCULAR HEMOGLOBIN CONCENTRATION [1]: 37.47 G/DL | MEAN CORPUSCULAR VOLUME [1]: 62.9 fL | MONOCYTE [1]: 3% | NEUTROPHIL [1]: 9.33% | NUCLEATED RED BLOOD CELLS [1]: 0 /100WBC | PLATELET COUNT [1]: 1257.67 x10E3/uL | ALANINE AMINOTRANSFERASE [1]: 69.67 u/L | ALBUMIN [1]: 4.27 G/DL | ALKALINE PHOSPHATASE [1]: 376.67 u/L | ASPARTATE AMINOTRANSFERASE [1]: 99.33 u/L | BLOOD UREA NITROGEN [1]: 17 mg/dL | CARBON DIOXIDE [1]: 24.33 mmol/L | CHLORIDE [1]: 102.67 MEQ/L | CHOLESTEROL [1]: 67.67 mg/dL | CREATINE PHOSPHOKINASE [1]: 270.33 u/L | CREATININE [1]: 0.34 mg/dL | GLUCOSE [1]: 140.67 mg/dL | LACTATE DEHYDROGENASE [1]: 278 u/L | LIPASE [1]: 10.67 u/L | PHOSPHORUS [1]: 13.13 mg/dL | POTASSIUM [1]: 6.68 MEQ/L | SODIUM [1]: 145.57 MEQ/L | TOTAL BILIRUBIN [1]: 0.2 mg/dL | TOTAL PROTEIN [1]: 6.03 G/DL | URIC ACID [1]: 1.6 mg/dL | ABSOLUTE BASOPHIL [2]: 0 CELLS/uL | ABSOLUTE EOSINOPHIL [2]: 108.33 CELLS/uL | ABSOLUTE LYMPHOCYTE [2]: 16413 CELLS/uL | ABSOLUTE MONOCYTE [2]: 47.67 CELLS/uL | ABSOLUTE SEGMENTED NEUTROPHIL [2]: 1431 CELLS/uL | BASOPHIL [2]: 0% | EOSINOPHIL [2]: 0.67% | ERYTHROCYTE COUNT [2]: 6.31 x10E6/uL | HEMATOCRIT [2]: 40.5% | HEMOGLOBIN [2]: 14.57 G/DL | LEUKOCYTE COUNT [2]: 18 x10E3/uL | LYMPHOCYTE [2]: 91% | MEAN CORPUSCULAR HEMOGLOBIN [2]: 23.2 pg | MEAN CORPUSCULAR HEMOGLOBIN CONCENTRATION [2]: 36 G/DL | MEAN CORPUSCULAR VOLUME [2]: 64.37 fL | MONOCYTE [2]: 0.33% | NEUTROPHIL [2]: 8% | NUCLEATED RED BLOOD CELLS [2]: 0 /100WBC | PLATELET COUNT [2]: 1228.67 x10E3/uL | ALANINE AMINOTRANSFERASE [2]: 84 u/L | ALBUMIN [2]: 4.57 G/DL | ALKALINE PHOSPHATASE [2]: 402 u/L | ASPARTATE AMINOTRANSFERASE [2]: 97.33 u/L | BLOOD UREA NITROGEN [2]: 17 mg/dL | CARBON DIOXIDE [2]: 27.33 mmol/L | CHLORIDE [2]: 101 MEQ/L | CHOLESTEROL [2]: 85 mg/dL | CREATINE PHOSPHOKINASE [2]: 304.67 u/L | CREATININE [2]: 0.23 mg/dL | GLUCOSE [2]: 150.67 mg/dL | LACTATE DEHYDROGENASE [2]: 174.67 u/L | LIPASE [2]: 11 u/L | PHOSPHORUS [2]: 10.23 mg/dL | POTASSIUM [2]: 6.7 MEQ/L | SODIUM [2]: 143.83 MEQ/L | TOTAL BILIRUBIN [2]: 0.2 mg/dL | TOTAL PROTEIN [2]: 6.17 G/DL | URIC ACID [2]: 1.8 mg/dL | ABSOLUTE BASOPHIL [3]: 0 CELLS/uL | ABSOLUTE EOSINOPHIL [3]: 45.33 CELLS/uL | ABSOLUTE LYMPHOCYTE [3]: 12211.67 CELLS/uL | ABSOLUTE MONOCYTE [3]: 352 CELLS/uL | ABSOLUTE SEGMENTED NEUTROPHIL [3]: 1824.33 CELLS/uL | BASOPHIL [3]: 0% | EOSINOPHIL [3]: 0.33% | ERYTHROCYTE COUNT [3]: 5.73 x10E6/uL | HEMATOCRIT [3]: 36.63% | HEMOGLOBIN [3]: 13.6 G/DL | LEUKOCYTE COUNT [3]: 14.43 x10E3/uL | LYMPHOCYTE [3]: 85.33% | MEAN CORPUSCULAR HEMOGLOBIN [3]: 23.77 pg | MEAN CORPUSCULAR HEMOGLOBIN CONCENTRATION [3]: 37.13 G/DL | MEAN CORPUSCULAR VOLUME [3]: 63.93 fL | MONOCYTE [3]: 2.33% | NEUTROPHIL [3]: 12% | NUCLEATED RED BLOOD CELLS [3]: 0 /100WBC | PLATELET COUNT [3]: 1227.33 x10E3/uL | ALANINE AMINOTRANSFERASE [3]: 71.67 u/L | ALBUMIN [3]: 4.53 G/DL | ALKALINE PHOSPHATASE [3]: 405.67 u/L | ASPARTATE AMINOTRANSFERASE [3]: 97 u/L | BLOOD UREA NITROGEN [3]: 18 mg/dL | CARBON DIOXIDE [3]: 28.67 mmol/L | CHLORIDE [3]: 101.67 MEQ/L | CHOLESTEROL [3]: 92 mg/dL | CREATINE PHOSPHOKINASE [3]: 216.33 u/L | CREATININE [3]: 0.2 mg/dL | GLUCOSE [3]: 160.33 mg/dL | LACTATE DEHYDROGENASE [3]: 82 u/L | LIPASE [3]: 11 u/L | PHOSPHORUS [3]: 10.6 mg/dL | POTASSIUM [3]: 5.82 MEQ/L | SODIUM [3]: 147.1 MEQ/L | TOTAL BILIRUBIN [3]: 0.2 mg/dL | TOTAL PROTEIN [3]: 6.33 G/DL | URIC ACID [3]: 1.3 mg/dL
